Results published in the NIST ThermoML archive (doi:10.1021/je3011979).

Experiments:
[1] = xn = mol fraction of the nth substance listed; settings: 101 kPa, Liquid, Vibrating tube method
[2] = excess molar enthalpy (molar enthalpy of mixing); xn = mol fraction of the nth substance listed; settings: 291.15 K, 101 kPa, Liquid, Calvet calorimetry

CCCOC(C)=O [propyl ethanoate] + CCCCCCCCC
[1]
Settings | mass density [kg/m3]
291.15 K, x1 = 0.0569 | 724.6
291.15 K, x1 = 0.1163 | 730.7
291.15 K, x1 = 0.1916 | 739
291.15 K, x1 = 0.282 | 750
291.15 K, x1 = 0.3583 | 760
291.15 K, x1 = 0.4338 | 770.9
291.15 K, x1 = 0.4846 | 778.7
291.15 K, x1 = 0.5686 | 792.4
291.15 K, x1 = 0.6289 | 803.2
291.15 K, x1 = 0.6876 | 814.4
291.15 K, x1 = 0.7441 | 826
291.15 K, x1 = 0.7948 | 837.1
291.15 K, x1 = 0.8162 | 841.9
291.15 K, x1 = 0.8844 | 858.5
291.15 K, x1 = 0.9349 | 871.7
291.15 K, x1 = 0.9464 | 874.9
291.15 K, x1 = 1 | 889.6
298.15 K, x1 = 0.0361 | 717.2
298.15 K, x1 = 0.0384 | 717.4
298.15 K, x1 = 0.1106 | 724.5
298.15 K, x1 = 0.2023 | 734.5
298.15 K, x1 = 0.2833 | 744.2
298.15 K, x1 = 0.3636 | 754.6
298.15 K, x1 = 0.4312 | 764.2
298.15 K, x1 = 0.5061 | 775.6
298.15 K, x1 = 0.5653 | 785.3
298.15 K, x1 = 0.6308 | 796.9
298.15 K, x1 = 0.6728 | 804.8
298.15 K, x1 = 0.7321 | 816.5
298.15 K, x1 = 0.7908 | 829
298.15 K, x1 = 0.8257 | 836.9
298.15 K, x1 = 0.8918 | 852.8
298.15 K, x1 = 0.9404 | 865.6
298.15 K, x1 = 1 | 882.5
318.15 K, x1 = 0.0217 | 700
318.15 K, x1 = 0.1046 | 707.7
318.15 K, x1 = 0.1791 | 715.4
318.15 K, x1 = 0.2659 | 725
318.15 K, x1 = 0.335 | 733.4
318.15 K, x1 = 0.4077 | 742.9
318.15 K, x1 = 0.4731 | 752.1
318.15 K, x1 = 0.5367 | 761.7
318.15 K, x1 = 0.5943 | 771
318.15 K, x1 = 0.6526 | 781.2
318.15 K, x1 = 0.7078 | 791.4
318.15 K, x1 = 0.7597 | 801.7
318.15 K, x1 = 0.8179 | 814.1
318.15 K, x1 = 0.8565 | 822.8
318.15 K, x1 = 0.8964 | 832.4
318.15 K, x1 = 0.9373 | 842.7
318.15 K, x1 = 1 | 859.8
328.15 K, x1 = 0.056 | 695.1
328.15 K, x1 = 0.1062 | 699.8
328.15 K, x1 = 0.1918 | 708.3
328.15 K, x1 = 0.2757 | 717.5
328.15 K, x1 = 0.3519 | 726.6
328.15 K, x1 = 0.429 | 736.7
328.15 K, x1 = 0.4999 | 746.7
328.15 K, x1 = 0.5709 | 757.6
328.15 K, x1 = 0.6217 | 766
328.15 K, x1 = 0.6881 | 777.7
328.15 K, x1 = 0.7461 | 788.7
328.15 K, x1 = 0.7857 | 796.8
328.15 K, x1 = 0.8318 | 806.6
328.15 K, x1 = 0.8801 | 817.6
328.15 K, x1 = 0.8853 | 818.8
328.15 K, x1 = 0.9429 | 833
328.15 K, x1 = 1 | 848.3

[2]
Settings | excess molar enthalpy [kcal/mol]
x1 = 0.1167 | 0.142
x1 = 0.2247 | 0.2261
x1 = 0.3093 | 0.2789
x1 = 0.379 | 0.3102
x1 = 0.4448 | 0.325
x1 = 0.5009 | 0.3305
x1 = 0.5447 | 0.3277
x1 = 0.5617 | 0.3248
x1 = 0.6139 | 0.3136
x1 = 0.6683 | 0.2921
x1 = 0.7299 | 0.2593
x1 = 0.7964 | 0.215
x1 = 0.8649 | 0.155
x1 = 0.9356 | 0.0848
